According to patent US6790862B2 (priority 1999, dated 2004):
Converted amounts (≈) assume the structure as drawn. Like-named read-outs stand apart in the source and are kept apart here.

How the values were obtained:
[1] = system: H441 (human lung adenocarcinoma); assay: MTT cytotoxicity assay, 96 hours exposure; type: cell-based; details: for nuclei break up into small vessicles (nuclear blebbing): H441, comparators at their respective LD50s
Experimental: (§1) The cytotoxicity of Peloruside A was tested in five cell lines:
H441 (human lung adenocarcinoma)
(§2) 32D (murine myeloid) generally in accordance with the MTT assay of Burres et al., J. Cancer Research (1989), 49, 2935-2940.
(§3) Briefly, cell lines were maintained in Dulbecco's modified Eagle's medium: F12 medium (50:50) (Gibco) supplemented with 10% fetal calf serum (Gibco), […] Penicillin G, and […] streptomycin sulfate. After 96 hours exposure to the toxin, cell viability was determined by the MTT calorimetric assay. […] Data were analysed with the SYSTAT statistical program using a non-linear model fit, and IC50 values were calculated using a Logit-Log plot.

[2] = indirect, fragment-based computational calculation; cited from earlier work
[3] = system: HL-60 cells; assay: MTT cell proliferation assay; type: cell-based, human; details: for IC50: Homo sapiens
Experimental: (§4) Tumorigenic and non-tumorigenic cell lines were cultured as previously described in Hood K. A., West L. M., Northcote P. T., Berridge M. V., Miller J. H., Apoptosis (2001), 6, 207-219. These cell lines included HL-60 and KS62, two tumorigenic human myeloid leukemic cell lines, 32D clone 3 (32D), a non-tumorigenic murine myeloid cell line, 32D-ras, the ras-transformed derivative of 32D, H441, a human lung adenocarcinoma cell line, SH-SY5Y, a human neuroblastoma cell line, and LLC-PK1, a non-tumorigenic pig kidney cell line. IC50 values for Peloruside A in the different cell lines were determined using the tetrazolium-based MTT cell proliferation assay as previously described (Hood K. A et al.).

[4] = system: b-tubulin in HL-60 cells; assay: in situ tubulin polymerization, immunoblot of soluble and particulate fractions; type: cell-based, human; details: 5 h; for effect on proportion of soluble to polymerized tubulin: HL-60, different concentrations; for b-tubulin remaining in the soluble fraction: HL-60, 100 nM
Source text: A simple in situ cellular assay as described by Giannakakou P., Gussio R., Nogales E., Downing K. H., Zaharevitz D., Bollbuck B., Poy G., Sackett D., Nicolaou K. C., Fojo T., Proc. Nat. Acad. Sci. (USA) (2000), 97, 2904-2909 was used in which the shift in tubulin from depolymerized to polymerized forms was followed by electrophoresis and Western blotting of centrifuged particulate and cytosolic fractions. To summarize, 2×10^6 untreated and drug-exposed HL-60 cells were lysed by exposure for 5 min at 37° C. to […] of hypotonic buffer (1 mM MgCl2, 2 mM EGTA, 1% Nonidet P-40, 2 mM phenylmethylsulfonyl fluoride, 1 mg/mL aprotinin, 2 mg/mL pepstatin, and 20 mM Tris-HCl, pH 6.8) and the particulate fraction separated from the soluble cytosolic fraction by high speed centrifugation for 10 min in a bench-top centrifuge. Samples labeled ‘0 min’ received drug immediately before collection of the cells. The processing of the cells to the critical centrifugation step required approximately 30 min. The pellet was dissolved in […] of sample buffer (8 M urea, 4% CHAPS, 3 M thiourea, and 40 mM DTT). Twenty mL of loading buffer was added to each […] sample, the samples were vortexed and then boiled for 5 min. Twenty mL of each sample was loaded on an SDS/10% polyacrylamide gel and resolved by electrophoresis. b-Tubulin bands were identified by Western blotting using b-tubulin primary antibody ( 1/1000 dilution) following standard immunoblotting procedures with detection by enhanced chemiluminescence (Lumi-Light, Roche).
Scale bar (lower right)=500 nm.

[5] = system: K562 cells; assay: cellular morphology; type: cell-based, human; details: K562, 2 days exposure, 100 nM
[6] = system: HeLa cells; assay: anti-metabolic activity, WST-1 reduction; type: cell-based; design: stimulation of WST-1 reduction: dose or concentration left out as unconfirmed
Experimental: (§5) The effect of Peloruside A and paclitaxel on superoxide production was determined using human peripheral blood neutrophils activated with […] N-formyl-met-leu-phe (fMLP) as described previously (Tan A. S., Berridge M. V., J. Immunol. Meth. (2000), 238, 59-68). In this microplate assay, the cell-impermeable tetrazolium salt, WST-1, is reduced to its soluble formazan and dye reduction measured at 450 nm as an initial rate over 10-20 min. Samples were equilibrated with cells for 3 min at 37° C. and the reaction initiated by adding fMLP. Measurement of anti-metabolic activity followed a similar microplate protocol except that HeLa cells were used instead of neutrophils, cells were not activated with fMLP, and the intermediate electron acceptor, 1-methoxy phenazine methosulfate at 25 mM, was included in the WST-1 reagent to facilitate detection of low potential electrons from the plasma membrane.

[7] = system: H441 cells; assay: cell cycle by flow cytometry (PI) and mitotic index; type: cell-based, human; design: metaphase-arrested cells (mitotic index): dose or concentration left out as unconfirmed; details: H441, 24 h
Experimental: Using standard methodology, the DNA of cells was stained with propidium iodide (PI), and the proportion of cells in different phases of the cell cycle was monitored by flow cytometry. Briefly, H441 cells were treated with […] for 24 h. Adherent cells were collected by trypsinization and added to those in suspension. The cells were then fixed with cold 70% ethanol overnight and stained with PI solution consisting of 45 mg/mL PI, 10 mg/mL RNaseA, and 0.1% glucose. After a 2 h incubation at RT, samples were analysed in a FACSort flow cytometer (Becton Dickinson).
Cells were treated with […] Peloruside A or paclitaxel, stained with PI, and counted by flow cytometry. For the mitotic index, cells were treated for 24 h with different concentrations of Peloruside A or paclitaxel, and the number of cells in mitosis divided by the total number of cells (n=at least 400 cells counted in each of 3 preparations).

[8] = lipophilicity by thin layer chromatography; type: physicochemical
[9] = system: P388 (Murine Leukemia) cells; assay: anti-tumor assay, P388 cell growth, MTT; type: cell-based; details: Mus musculus, 72 hours incubation, read-out: cytotoxic to P388 murine leukemia cells (IC50)
Experimental: The bioactivity of peloruside A as an anti-tumor agent was determined by an anti-tumor assay. For the anti-tumor assay a 2-fold dilution series of the same of interest is incubated for 72 hours with P388 (Murine Leukemia) cells. The concentration of sample required to reduce the P388 cell growth by 50% (comparative to control cells) is determined using the absorbance values obtained with the yellow dye MTT tetrazollum is reduced by healthy cells to the purple colour MTT formazan. The result is expressed as an IC50 in ng/mL.

[10] = system: H441 cells; assay: cellular morphology, phase-contrast microscopy; type: cell-based, human; details: for treated cells with intracellular fiber bundles: H441, 48 h; for treated cells with intracellular fiber bundles / micronuclei: 100 nM; for micronuclei: H441, 2 days exposure; for intracellular fiber bundles: H441, phase-contrast microscopy
Experimental: Phase-contrast photomicrographs of H441 human lung adenocarcinoma cells: untreated control cells (A) and cells exposed for 48 h to 100 nM Peloruside A (B) or 100 nM paclitaxel (C). Note the intracellular fiber bundles in approximately 10% of the treated cells and the numerous micronuclei, each with a dark central spot of condensed DNA. Scale bar=[…].

[11] = system: SH-SY5Y (human neuroblastoma); assay: MTT cytotoxicity assay, 96 hours exposure; type: cell-based
Experimental: as §1
SH-SY5Y (human neuroblastoma)
as §2, §3

[12] = system: purified tubulin; assay: in vitro tubulin polymerization and electron microscopy; type: biochemical; design: polymerization of purified tubulin in solution: dose or concentration left out as unconfirmed; details: for polymerization of purified tubulin in solution: 30 min, 37° C., electron microscopy; for stability of induced microtubules: at 0C
Experimental: Purified tubulin (approximately 7.5 mg protein) containing approximately 15% microtubule-associated proteins was obtained from Sigma and reconstituted in 0.1 M MES buffer, pH 6.8, 1 mM EGTA, 0.1 mM EDTA, 0.5 mM MgCl2, 1 mM DTT, 0.1 mM GTP, 1 mg/mL leupeptin, 1 mg/mL aprotinin, and 100 mg/mL sucrose as stabilizer. The reconstituted tubulin was incubated at 37° C. for 30 min in the presence of […] Peloruside A or […] paclitaxel. Samples […] were pipetted onto 400-mesh carbon- and Formvar-coated copper grids and left for 2 min at RT before blotting with filter paper. Each grid was stained with 5 mL of 1% uranyl acetate for 3 min at RT, then blotted with filter paper. Grids were air-dried overnight before examination in a Philips CM100 transmission electron microscope.
(B) Immunoblots following exposure to […] Peloruside A and […] paclitaxel for varying lengths of time. (C) Transmission electron micrograph of microtubules formed following treatment of purified soluble tubulin with […] Peloruside A for 30 min at 37° C. Scale bar (lower right)=500 nm.

[13] = system: 32D (murine myeloid); assay: MTT cytotoxicity assay; type: cell-based
Experimental: as §1, §2
as §3, with “After 96 hours exposure to the toxin, cell viability was determined by the MTT calorimetric assay.” left out

[14] = system: different cell lines (H441, SY5Y, HL-60, 32D-ras, 32D, LLC-PK1); assay: MTT cell proliferation assay in the different cell lines; type: cell-based; details: 96 h; 4-day exposure
Experimental: as §4

[15] = system: P388 (murine leukemia); assay: MTT cytotoxicity assay, 96 hours exposure; type: cell-based; details: P388, 96 hours exposure
Experimental: as §1, §2, §3

[16] = system: LLC-PK1 (pig kidney); assay: MTT cytotoxicity assay, 96 hours exposure; type: cell-based; details: LLC-PK1, 96 hours exposure
Experimental: as §1, §2, §3

[17] = system: human peripheral blood neutrophils; assay: fMLP-activated respiratory burst, superoxide production (WST-1); type: cell-based; design: dose or concentration left out as unconfirmed
Experimental: as §5

Molecule | nuclei break up into small vessicles (nuclear blebbing) [1] | IC50 ([3]; HL-60) | effect on proportion of soluble to polymerized tubulin [4] | micronuclei [5] | cell cycle arrest [7] | metaphase-arrested cells (mitotic index) [7] | treated cells with intracellular fiber bundles [10] | micronuclei [10] | intracellular fiber bundles [10] | polymerization of purified tubulin in solution [12] | stability of induced microtubules [12] | b-tubulin remaining in the soluble fraction [4] | further results
pateamine [reference compound] | not been observed | – | – | – | – | – | – | – | – | – | – | – | –
C=C/C=C\[C@H](C)[C@H](OC(N)=O)[C@@H](C)[C@H](O)[C@@H](C)C/C(C)=C\[C@H](C)[C@@H](O)[C@@H](C)/C=C\[C@@H](O)C[C@@H]1OC(=O)[C@H](C)[C@@H](O)[C@H]1C [Discodermolide, discodermolide] | – | – | – | – | – | – | – | – | – | – | – | – | solubility relative to paclitaxel [2]: 160 fold
CCC(/C=C(/C)C1C[C@H](OC)C[C@@H](O)C(C)(C)C(O)C(O)C(OC)C[C@H](O)C[C@H](OC)[C@@H](O)C(=O)O1)CO (stereo partly drawn) [Peloruside A reduction product] | – | 221 ± 24 nM | no significant effect | – | – | – | – | – | – | – | – | – | increase of IC50 relative to Peloruside A ([3]; HL-60 cells): 31 fold
CCC(/C=C(/C)C1C[C@H](OC)C[C@@H](O)C(C)(C)[C@]2(O)OC(CC(OC)C2O)C[C@H](OC)[C@@H](O)C(=O)O1)CO (stereo partly drawn) [Peloruside A] | nuclei of the cells were observed to break up into small vessicles | 7 ± 4 nM | dose-dependent shifts of soluble tubulin to the particulate fraction | multiple micronuclei were observed | partial cell cycle arrest at G2/M | 34±2% | approximately 10% | multiple micronuclei were observed | large intracellular fiber bundles were observed | polymerize in solution into typical, long, straight microtubules | stable | No detectable b-tubulin remained in the soluble fraction | stimulation of WST-1 reduction [6]: 20%; lipophilicity [8]: less lipophilic than paclitaxel; IC50 [9]: ~0.01 µg/mL (≈ 0.0182 µM); retraction of dendrites [11]: no retraction of dendrites was observed; LD50 ([11]; 96 hours exposure): 14.9 nM; LD50 ([13]; 96 hours exposure): 0.0078 µM; LD50 ([13]; viability at 24 hours of exposure): 1600 µM; IC50 [14]: 4 to 15 nM; LD50 ([1]; H441, 96 hours exposure): 6.2 nM; LD50 [15]: 18 nM; LD50 [16]: 3.7 nM
CC(=O)O[C@H]1C(=O)[C@@]2(C)[C@H]([C@H](OC(=O)c3ccccc3)[C@]3(O)C[C@H](OC(=O)[C@H](O)[C@@H](NC(=O)c4ccccc4)c4ccccc4)C(C)=C1C3(C)C)[C@]1(OC(C)=O)CO[C@@H]1C[C@@H]2O [paclitaxel, Paclitaxel, reference compound] | – | – | dose-dependent shifts of soluble tubulin to the particulate fraction | multiple micronuclei were observed | partial cell cycle arrest at G2/M | 64±4% | approximately 10% | multiple micronuclei were observed | large intracellular fiber bundles were observed | polymerize in solution into typical, long, straight microtubules | stable | No detectable b-tubulin remained in the soluble fraction | effect on WST-1 reduction ([6]; 12-24 mM): little effect; IC50 ([3]; HL-60 cells, ± S.E.M., read-out: IC50): 22 ± 8 nM; effect on neutrophil activation [17]: no effect
C=C1C[C@](OC)([C@H](O)C(=O)N[C@H]2OCO[C@H]3[C@@H]2O[C@H](C[C@H](O)CO)C(C)(C)[C@@H]3OC)O[C@H](C)[C@@H]1C [mycalamide A, reference compound] | not been observed | – | – | – | – | – | – | – | – | – | – | – | –
